Results on seven cell lines are retold here after the supplement of paper PMC10307832.

Holding throughout (assay): relative viability (nuclei count vs DMSO), 5 days (fraction); higher = more cells survive
Compound in the experiment “Ruboxistaurin + OSI-027”: CN(C)C[C@@H]1CCn2cc(c3ccccc32)C2=C(C(=O)NC2=O)c2cn(c3ccccc23)CCO1 [Ruboxistaurin] + COc1cccc2cc(-c3nc([C@H]4CC[C@H](C(=O)O)CC4)n4ncnc(N)c34)[nH]c12 [OSI-027] (partner 0.5 µM)
The essentials:
(§1)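 Lung cancer cell lines in 1536-well plates were dosed by pin tool the day after seeding, either with one drug alone or with a fixed anchor-drug dose plus five library-drug doses (not always all listed) in √10 steps. After 5 days, cells were fixed and their nuclei stained in one step (final 0.05% Triton X-100, 1% formaldehyde, 1 ug/ml Hoechst), then counted on 4× images. Relative viability is the nuclei count in treated wells divided by that in vehicle wells. Values are medians of duplicate plates.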

Compound in experiment [1]: CN(C)C[C@@H]1CCn2cc(c3ccccc32)C2=C(C(=O)NC2=O)c2cn(c3ccccc23)CCO1 [Ruboxistaurin] + CC(C)C[C@H](NC(=O)[C@H](Cc1ccccc1)NC(=O)c1cnccn1)B(O)O [Bortezomib] (partner 0.002 µM)
The essentials: as §1

Compound in experiment [2]: CN(C)C[C@@H]1CCn2cc(c3ccccc32)C2=C(C(=O)NC2=O)c2cn(c3ccccc23)CCO1 [Ruboxistaurin] + Cc1cc(Nc2cc(N3CCN(C)CC3)nc(Sc3ccc(NC(=O)C4CC4)cc3)n2)n[nH]1 [Tozasertib] (partner 0.1 µM)
The method, boiled down:
as §1

Compound in experiment [3]: CN(C)C[C@@H]1CCn2cc(c3ccccc32)C2=C(C(=O)NC2=O)c2cn(c3ccccc23)CCO1 [Ruboxistaurin] + CC(=O)c1c(C)c2cnc(Nc3ccc(N4CCNCC4)cn3)nc2n(C2CCCC2)c1=O [Palbociclib] (partner 0.5 µM)
The essentials:
as §1

Compound in experiment [4]: CN(C)C[C@@H]1CCn2cc(c3ccccc32)C2=C(C(=O)NC2=O)c2cn(c3ccccc23)CCO1 [Ruboxistaurin] + Nc1nc2[nH]cc(CCc3ccc(C(=O)N[C@@H](CCC(=O)O)C(=O)O)cc3)c2c(=O)[nH]1 [Pemetrexed] (partner 0.2 µM)
The method, boiled down: as §1

Regarding NCI-H1734, the relative viability with Ruboxistaurin + OSI-027 (first compound 0.08 µM) was 0.628; with Ruboxistaurin + OSI-027 (first compound 0.8 µM) it was 0.411; in the experiment with Ruboxistaurin + OSI-027 (first compound 2.53 µM) it was 0.56; with Ruboxistaurin + OSI-027 (first compound 8 µM), 0.385; in experiment [1] (first compound 0.08 µM), 1.01; in experiment [1] (first compound 0.8 µM), 0.781. The relative viability came to 1.06 in experiment [1] (first compound 2.53 µM); 0.816 in experiment [1] (first compound 8 µM); 0.282 in experiment [2] (first compound 0.08 µM); 0.224 in experiment [2] (first compound 0.8 µM); 0.249 in experiment [2] (first compound 2.53 µM); 0.243 in experiment [2] (first compound 8 µM). Moreover, the relative viability came out at 0.354 in experiment [3] (first compound 0.08 µM); 0.328 in experiment [3] (first compound 0.8 µM); 0.367 in experiment [3] (first compound 2.53 µM); 0.312 in experiment [3] (first compound 8 µM); 0.425 in experiment [4] (first compound 0.08 µM); 0.394 in experiment [4] (first compound 0.8 µM). Further, the relative viability in experiment [4] (first compound 2.53 µM) and in experiment [4] (first compound 8 µM) was 0.4 each time.

As to EKVX, the relative viability with Ruboxistaurin + OSI-027 (first compound 0.08 µM) came to 0.734; with Ruboxistaurin + OSI-027 (first compound 0.8 µM), 0.751; in the experiment with Ruboxistaurin + OSI-027 (first compound 2.53 µM) it was 0.709; with Ruboxistaurin + OSI-027 (first compound 8 µM), 0.641; in experiment [1] (first compound 0.08 µM), 1.15; in experiment [1] (first compound 0.8 µM), 0.998. The relative viability in experiment [1] (first compound 2.53 µM) was found to be 1.18; in experiment [1] (first compound 8 µM) it was 0.946; in experiment [2] (first compound 0.08 µM) it was 0.411; in experiment [2] (first compound 0.8 µM), 0.401; in experiment [2] (first compound 2.53 µM), 0.415; in experiment [2] (first compound 8 µM), 0.367. For the same cell line, the relative viability in experiment [3] (first compound 0.08 µM) came to 0.414; in experiment [3] (first compound 0.8 µM), 0.318; in experiment [3] (first compound 2.53 µM) it was 0.424; in experiment [3] (first compound 8 µM), 0.321; in experiment [4] (first compound 0.08 µM), 0.413; in experiment [4] (first compound 0.8 µM), 0.401. Also, the relative viability in experiment [4] (first compound 2.53 µM) worked out at 0.373; in experiment [4] (first compound 8 µM) it was 0.393.

With HARA, the relative viability with Ruboxistaurin + OSI-027 (first compound 0.08 µM) is 0.677; in the experiment with Ruboxistaurin + OSI-027 (first compound 0.8 µM) it was 0.356; in the experiment with Ruboxistaurin + OSI-027 (first compound 2.53 µM), 0.488; with Ruboxistaurin + OSI-027 (first compound 8 µM) it was 0.305; in experiment [1] (first compound 0.08 µM), 1.22; in experiment [1] (first compound 0.8 µM) it was 1.04. Also, the relative viability in experiment [1] (first compound 2.53 µM) turned out to be 1.15; in experiment [1] (first compound 8 µM), 0.465; in experiment [2] (first compound 0.08 µM) it was 0.0939; in experiment [2] (first compound 0.8 µM) it was 0.101; in experiment [2] (first compound 2.53 µM) it was 0.12; in experiment [2] (first compound 8 µM), 0.102. Also, the relative viability amounted to 0.214 in experiment [3] (first compound 0.08 µM); 0.263 in experiment [3] (first compound 0.8 µM); 0.266 in experiment [3] (first compound 2.53 µM); 0.326 in experiment [3] (first compound 8 µM); 0.262 in experiment [4] (first compound 0.08 µM); 0.297 in experiment [4] (first compound 0.8 µM). Besides, the relative viability in experiment [4] (first compound 2.53 µM) amounted to 0.236; in experiment [4] (first compound 8 µM), 0.248.

On to EMC-BAC-2, for which the relative viability amounted to 0.399 with Ruboxistaurin + OSI-027 (first compound 0.08 µM); 0.343 with Ruboxistaurin + OSI-027 (first compound 0.8 µM); 0.362 with Ruboxistaurin + OSI-027 (first compound 2.53 µM); 0.258 with Ruboxistaurin + OSI-027 (first compound 8 µM); 1.1 in experiment [1] (first compound 0.08 µM); 0.99 in experiment [1] (first compound 0.8 µM). Moreover, the relative viability in experiment [1] (first compound 2.53 µM) turned out to be 1.04; in experiment [1] (first compound 8 µM) it was 0.962; in experiment [2] (first compound 0.08 µM), 0.29; in experiment [2] (first compound 0.8 µM), 0.254; in experiment [2] (first compound 2.53 µM), 0.272; in experiment [2] (first compound 8 µM), 0.17. Besides, the relative viability came out at 0.51 in experiment [3] (first compound 0.08 µM); 0.506 in experiment [3] (first compound 0.8 µM); 0.514 in experiment [3] (first compound 2.53 µM); 0.493 in experiment [3] (first compound 8 µM); 0.419 in experiment [4] (first compound 0.08 µM); 0.415 in experiment [4] (first compound 0.8 µM). In addition, the relative viability in experiment [4] (first compound 2.53 µM) came to 0.384; in experiment [4] (first compound 8 µM) it was 0.383.

Take PC-14: the relative viability stood at 1.12 in the experiment with Ruboxistaurin + OSI-027 (first compound 0.08 µM); 0.721 in the experiment with Ruboxistaurin + OSI-027 (first compound 0.8 µM); 0.811 with Ruboxistaurin + OSI-027 (first compound 2.53 µM); 0.452 in the experiment with Ruboxistaurin + OSI-027 (first compound 8 µM); 1.11 in experiment [1] (first compound 0.08 µM); 0.743 in experiment [1] (first compound 0.8 µM). Further, the relative viability was determined as 0.899 in experiment [1] (first compound 2.53 µM); 1.1 in experiment [1] (first compound 8 µM); 0.596 in experiment [2] (first compound 0.08 µM); 0.518 in experiment [2] (first compound 0.8 µM); 0.546 in experiment [2] (first compound 2.53 µM); 0.532 in experiment [2] (first compound 8 µM). For the same cell line, the relative viability in experiment [3] (first compound 0.08 µM) came out at 0.603; in experiment [3] (first compound 0.8 µM), 0.452; in experiment [3] (first compound 2.53 µM) it was 0.51; in experiment [3] (first compound 8 µM), 0.528; in experiment [4] (first compound 0.08 µM) it was 0.135; in experiment [4] (first compound 0.8 µM), 0.136. Further, the relative viability in experiment [4] (first compound 2.53 µM) came to 0.136; in experiment [4] (first compound 8 µM) it was 0.115.

On to NCI-H520, for which the relative viability with Ruboxistaurin + OSI-027 (first compound 0.08 µM) turned out to be 0.192; with Ruboxistaurin + OSI-027 (first compound 0.8 µM) it was 0.258; in the experiment with Ruboxistaurin + OSI-027 (first compound 2.53 µM) it was 0.233; with Ruboxistaurin + OSI-027 (first compound 8 µM), 0.218; in experiment [1] (first compound 0.08 µM), 0.856; in experiment [1] (first compound 0.8 µM), 0.66. Besides, the relative viability in experiment [1] (first compound 2.53 µM) is 0.806; in experiment [1] (first compound 8 µM), 0.423; in experiment [2] (first compound 0.08 µM) it was 0.477; in experiment [2] (first compound 0.8 µM), 0.456; in experiment [2] (first compound 2.53 µM) it was 0.398; in experiment [2] (first compound 8 µM), 0.456. Moreover, the relative viability in experiment [3] (first compound 0.08 µM) came out at 0.236; in experiment [3] (first compound 0.8 µM) it was 0.222; in experiment [3] (first compound 2.53 µM), 0.246; in experiment [3] (first compound 8 µM), 0.185; in experiment [4] (first compound 0.08 µM), 0.666; in experiment [4] (first compound 0.8 µM), 0.506. Also, the relative viability was 0.532 in experiment [4] (first compound 2.53 µM) and 0.494 in experiment [4] (first compound 8 µM).

Consider NCI-H1755, for which the relative viability with Ruboxistaurin + OSI-027 (first compound 0.08 µM) amounted to 0.714; with Ruboxistaurin + OSI-027 (first compound 0.8 µM) it was 0.621; in the experiment with Ruboxistaurin + OSI-027 (first compound 2.53 µM) it was 0.614; with Ruboxistaurin + OSI-027 (first compound 8 µM) it was 0.549; in experiment [1] (first compound 0.08 µM) it was 0.976; in experiment [1] (first compound 0.8 µM), 0.945. The relative viability came to 0.979 in experiment [1] (first compound 2.53 µM); 1.02 in experiment [1] (first compound 8 µM); 0.608 in experiment [2] (first compound 0.08 µM); 0.55 in experiment [2] (first compound 0.8 µM); 0.555 in experiment [2] (first compound 2.53 µM); 0.525 in experiment [2] (first compound 8 µM). Moreover, the relative viability in experiment [3] (first compound 0.08 µM) came to 0.495; in experiment [3] (first compound 0.8 µM), 0.452; in experiment [3] (first compound 2.53 µM), 0.463; in experiment [3] (first compound 8 µM), 0.455; in experiment [4] (first compound 0.08 µM), 0.452; in experiment [4] (first compound 0.8 µM) it was 0.476. Further, the relative viability in experiment [4] (first compound 2.53 µM) amounted to 0.35; in experiment [4] (first compound 8 µM), 0.471.
